Assay results: patent US20110098325A1, “PYRIDINE BENZAMIDES AND PYRAZINE BENZAMIDES USED AS PKD INHIBITORS” (CANCER RESEARCH TECHNOLOGY LIMITED, priority 2006, published 2011)
Several values for one entry are separate records, joined by “and”; a condition that tells them apart may be missing. Identical values can stand only once.

target: T1, Murine PKD1 kinase domain (Mus musculus, UniProt Q62101); assay: PKD1 (Murine Kinase Domain) Enzyme Activity Assay (IMAP fluorescence polarisation); format: biochemical; details: 10 μM ATP, 60 minutes, room temperature
T1 construct: hexahistidine (pFastBac HTb leader) (N); made in house; host or cells: Sf9 insect cells, baculovirus (Bac-to-Bac HT, pFastBac HTb)
T1 sequence (Q62101 with tags, fused parts or gaps R683W): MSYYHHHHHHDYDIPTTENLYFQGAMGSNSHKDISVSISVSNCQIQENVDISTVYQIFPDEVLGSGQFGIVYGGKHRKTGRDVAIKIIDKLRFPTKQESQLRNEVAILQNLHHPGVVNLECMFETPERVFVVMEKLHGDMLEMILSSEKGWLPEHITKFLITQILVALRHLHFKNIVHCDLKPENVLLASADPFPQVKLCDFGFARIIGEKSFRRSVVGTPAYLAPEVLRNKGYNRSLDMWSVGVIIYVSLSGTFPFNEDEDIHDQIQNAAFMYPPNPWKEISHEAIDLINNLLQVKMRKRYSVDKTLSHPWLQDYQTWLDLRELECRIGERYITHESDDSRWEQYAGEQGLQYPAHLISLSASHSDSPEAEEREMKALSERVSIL

| Compound | IC50 |
| --- | --- |
| COc1cc(-c2cncc(-c3cccc(C(=O)NCCN(C)C)c3)n2)ccc1O [X-007, N-(2-Dimethylamino-ethyl)-3-[6-(4-hydroxy-3-methoxy-phenyl)-pyrazin-2-yl]-benzamide] | < 1000 nM |
| COc1cc(-c2nc(-c3cccc(C(=O)NCCN(C)C)c3)cnc2N)ccc1O [X-017, 3-[5-Amino-6-(4-hydroxy-3-methoxy-phenyl)-pyrazin-2-yl]-N-(2-dimethylamino-ethyl)-benzamide] | < 1000 nM and 12 nM |
| COc1cc(-c2cc(-c3cccc(C(=O)NCCN(C)C)c3)cnc2N)ccc1O [Y-059, 3-[6-Amino-5-(4-hydroxy-3-methoxy-phenyl)-pyridin-3-yl]-N-(2-dimethylamino-ethyl)-benzamide] | < 1000 nM and 8.5 nM |
